Each structure is given as a SMILES string. “Also recorded” adds a separate entry of the source.

This is an account of results in US10617678B2, “Treatment of restenosis using temsirolimus” (MERCATOR MEDSYSTEMS, INC., priority 2016, dated 2020).

Data set [1] relates to cell proliferation in the vessel wall and adventitia. Nature of the data set: Ki-67 staining of cellular proliferation in injured femoral vessels. It is filed as in vivo, Yorkshire pigs. To be noted: day 3, 7 and 28; 1.5 ml of 238 μg/ml perivascular injection.
A short description of data set [2]: Pharmacokinetics: concentrations in harvested vessel tissues. It is filed as in vivo, Yorkshire pigs. To be noted: post-dosing.
Data set [3] is described as follows: Pharmacokinetics: whole blood concentrations after adventitial injection. It is filed as in vivo, Yorkshire pigs. As for the experimental part:
Temsirolimus Preparation. The 25 mg/ml of Torisel® (temsirolimus) was diluted to 10 mg/ml with the supplied diluent and further diluted to 476 μg/ml in 0.9% sodium chloride solution. Then, the 476 μg/ml temsirolimus was mixed at 1:1 ratio with a contrast medium, Isovue-370, for a final temsirolimus concentration of 238 μg/ml. This temsirolimus preparation was subsequently administered in temsirolimus-treated group pigs. Similarly, a control solution was prepared by mixing 0.9% sodium chloride solution at 1:1 ratio with a contrast medium, Isovue-370. This control solution was administered in control group pigs.
Temsirolimus-Treated Group.
Pharmacokinetics. Whole blood samples were taken following each injection at 5 minutes, 20 minutes, 1 hour, and then 24 hours and upon sacrifice. Whole blood samples were analyzed for circulating temsirolimus and sirolimus concentrations. FIG. 14A and FIG. 14B show the levels of temsirolimus and sirolimus, respectively, circulating in whole blood at 1 hour, and 3, 7, and 28 days post-procedure. The mean temsirolimus level in whole blood was highest at 1 hour after the first injection (32.1±11.0 ng/mL) and decreased by an order of magnitude within 24 hours (2.4±1.0 ng/mL).

The conditions of data set [4]: clinical observations, clinical pathology, post mortem tissue analysis; adventitial injection with Bullfrog device.
For data set [5], the system named is femoral artery injured by angioplasty overstretch. The experiment in a line: Histopathology in porcine model of femoral artery injury. It is filed as in vivo, Yorkshire pigs.
Where [6] appears, read: 1.5 ml of 238 μg/ml perivascular injection, injured femoral artery.

Turning to `CO[C@H]1C[C@@H]2CC[C@@H](C)[C@@](O)(O2)C(=O)C(=O)N2CCCC[C@H]2C(=O)O[C@H]([C@H](C)C[C@@H]2CC[C@@H](OC(=O)C(C)(CO)CO)[C@H](OC)C2)CC(=O)[C@H](C)/C=C(\C)[C@@H](O)[C@@H](OC)C(=O)[C@H](C)C[C@H](C)/C=C/C=C/C=C/1C` [temsirolimus], in data set [1], the “cell proliferation throughout the vessel wall (Ki-67) compared to controls” value is recorded as “moderate to marked decrease; also recorded: reduced cellular proliferation”. Moreover, the “time temsirolimus was measured in local vascular tissue” value in data set [2] is listed as “up to 28 days”. Moreover, the “temsirolimus concentration in whole blood” value was “below the limit of quantitation” in data set [3] (7 days post-procedure); “below the limit of quantitation” in data set [3] (28 days post-procedure); “continued to decrease” in data set [3] (between 24 hours and 3 days). Also, in data set [3] (Yorkshire, pig, whole blood, 357 µg per artery (1.5 ml of 238 µg/ml), 1 hour after the first injection, read-out: mean temsirolimus level in whole blood), the concentration at 1 h stood at 32.1 ± 11 ng/mL. For the same compound, the concentration at 24 h in data set [3] (Yorkshire, pig, whole blood, 357 µg per artery (1.5 ml of 238 µg/ml), 24 hours, read-out: mean temsirolimus level in whole blood) was 2.4 ± 1 ng/mL. Moreover, in data set [4], the “local or systemic toxicity” value is recorded as “no evidence of local or systemic toxicity”. In addition, the neointima formation result in data set [5] (setting [6]) was “no or minimal to mild and non-stenosing neointima formation”. For the same compound, the re-endothelialization entry in data set [5] (setting [6]) is “complete or near complete re-endothelialization”. Moreover, the “healing of treated vessels (histopathology)” value in data set [5] (1.5 ml of 238 μg/ml temsirolimus into adventitia/perivascular tissue of each injured femoral artery) is given as “fully or nearly fully healed as early as day 7”.
